Data taken from patent US5162335A, “Di- and tetrahydroisoquinoline derivatives” (Duphar International Research B.V., priority 1986, dated 1992).

Test system: human cell lines: breast MCF7 and HTB26, colon WIDR and HTB38, lung HTB53, melanoma HTB66, and uterus HTB114
Assay: Clonogenic assay with human cell lines (test 2)
Type: cell-based
Conditions: treatment approximately three times the cell cycle, more particularly the D-enantiomers, read-out: ID75 in the clonogenic assay (test 2)
Experimental: 2. CLONOGENIC ASSAY WITH HUMAN CELL LINES
The following human cell lines are used: breast MCF7 and HTB26, colon WIDR and HTB38, lung HTB53, melanoma HTB66, and uterus HTB114.
As comparative substances are used cisplatinum, 5-fluorouracil, daunomycine, bleomycine and adriamycine.
During providing the cells or after a pre-incubationperiod of one night, the compound to be tested is added as a solution or suspension in 0.5% CMC/saline solution in a dose range with a maximum concentration of 15 μg/ml.
The duration of the treatment is approximately three times the cell cycle. The cells are then fixed, coloured and evaluated for the presence of the colonies. The formation of colonies is expressed in the number of colonies which is present on the treated dishes as a perecentage of the number of colonies which is present on control dishes.

SMILES	IC75
COc1cc([C@H]2N[C@@H](C(N)=O)Cc3cc4c(cc32)OCCO4)cc(OC)c1OC [Example 110]	< 1 µg/mL
COc1cc([C@H]2c3c(ccc4ccccc34)C[C@H]3COC(=O)N32)cc(OC)c1OC (relative stereo) [Example 82]	< 1 µg/mL
COc1cc([C@H]2c3ccc4ccccc4c3C[C@H]3COC(=O)N32)cc(OC)c1OC (relative stereo) [Example 81]	< 1 µg/mL
COc1cc([C@@H]2c3cc4c(cc3C[C@@H]3COS(=O)N32)OCO4)cc(OC)c1OC (stereo partly drawn) [Example 55]	< 1 µg/mL
COc1cc([C@H]2N[C@@H](CO)Cc3c2ccc2ccccc32)cc(OC)c1OC (relative stereo) [Example 23]	< 1 µg/mL
COc1cc([C@@H]2c3cc4c(cc3C[C@@H]3CN(C)[S+]([O-])N32)OCO4)cc(OC)c1OC (stereo partly drawn) [Example 70]	< 1 µg/mL
COc1cc(OC)c([C@H]2c3cc4c(cc3C[C@H]3COC(=O)N32)OCCO4)cc1OC [Example 80]	< 1 µg/mL
COc1cc([C@H]2N[C@@H](CO)Cc3cc4c(cc32)OCCO4)cc(OC)c1OC [Example 20]	< 1 µg/mL
COc1cc([C@@H]2c3cc4c(cc3C[C@@H]3COC(=O)N32)OCCO4)cc(OC)c1OC [Example 79]	< 1 µg/mL
